Experimental data from ChEMBL document CHEMBL1201862, “PubChem BioAssay data set” (2004).
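Protocol summary: plate cells (96-well), add compound at 5 concentrations, incubate 48 h, interpolate endpoints linearly. GI50 = concentration required for 50% inhibition of growth.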 The source made the active and inactive calls. Cut-off read from the data, not from the text of the source: active = GI50 up to about 1.1 µM and inactive = higher.

Experiments:
Assay in all cases: NCI anticancer screen, dose series, 48 h
SN12C = test system: SN12C
SK-MEL-5 = test system: SK-MEL-5
UO-31 = test system: UO-31
OVCAR-3 = test system: OVCAR-3
CAKI-1 = test system: CAKI-1
HCC 2998 = test system: HCC 2998
MOLT-4 = test system: MOLT-4
M14 = test system: M14
CCRF-CEM = test system: CCRF-CEM
IGROV-1 = test system: IGROV-1
LOX IMVI = test system: LOX IMVI
SNB-19 = test system: SNB-19
DU-145 = test system: DU-145
PC-3 = test system: PC-3
NCI-H460 = test system: NCI-H460
Hs-578T = test system: Hs-578T
NCI/ADR-RES = test system: NCI/ADR-RES
NCI-H23 = test system: NCI-H23
RPMI-8226 = test system: RPMI-8226
TK-10 = test system: TK-10

Measured: GI50

NC(=O)c1nnsc1N/N=C/c1ccc([N+](=O)[O-])cc1
inactive: SN12C > 100 µM | SK-MEL-5 > 100 µM | UO-31 77.1 µM | OVCAR-3 55.2 µM | CAKI-1 > 100 µM | HCC 2998 > 100 µM | MOLT-4 > 100 µM | M14 > 100 µM | CCRF-CEM > 100 µM | IGROV-1 > 100 µM | LOX IMVI > 100 µM | SNB-19 > 100 µM | DU-145 > 100 µM | PC-3 > 100 µM | NCI-H460 > 100 µM | Hs-578T > 100 µM | NCI/ADR-RES > 100 µM | NCI-H23 > 100 µM | RPMI-8226 > 100 µM

C[C@@H]1O[C@@H]2OCC[C@@H]2C2=C1C(=O)c1ccccc1C2=O
inactive: SN12C 6.35 µM | SK-MEL-5 5.94 µM | UO-31 10.8 µM | OVCAR-3 3.08 µM | CAKI-1 15.2 µM | HCC 2998 17.9 µM | MOLT-4 7.74 µM | M14 3.98 µM | CCRF-CEM 6.87 µM | IGROV-1 1.98 µM | LOX IMVI 1.92 µM | SNB-19 18.7 µM | TK-10 19.7 µM | DU-145 9.1 µM | PC-3 3.65 µM | NCI-H460 16.7 µM | Hs-578T 28.1 µM | NCI/ADR-RES 2.02 µM | NCI-H23 4.88 µM | RPMI-8226 7.23 µM

CC(=O)Nc1nc(C)c(S(=O)(=O)NC(=O)N2c3ccccc3CCc3ccccc32)s1
inactive: SN12C > 100 µM | SK-MEL-5 > 100 µM | UO-31 > 100 µM | OVCAR-3 > 100 µM | CAKI-1 > 100 µM | HCC 2998 > 100 µM | MOLT-4 89.5 µM | M14 > 100 µM | CCRF-CEM 44.6 µM | IGROV-1 > 100 µM | LOX IMVI > 100 µM | SNB-19 29.4 µM | TK-10 > 100 µM | DU-145 > 100 µM | PC-3 > 100 µM | NCI-H460 > 100 µM | Hs-578T > 100 µM | NCI/ADR-RES > 100 µM | NCI-H23 > 100 µM | RPMI-8226 > 100 µM

COC(=O)c1c(C)[n+]([O-])c2cc(Cl)c(Cl)cc2[n+]1[O-]
inactive: SN12C 18.2 µM | SK-MEL-5 8.71 µM | UO-31 15.8 µM | OVCAR-3 16.6 µM | CAKI-1 20.7 µM | HCC 2998 16.1 µM | MOLT-4 12.6 µM | M14 24.5 µM | CCRF-CEM 10.4 µM | IGROV-1 4.39 µM | LOX IMVI 8.65 µM | SNB-19 27.4 µM | TK-10 11.3 µM | DU-145 12.5 µM | PC-3 22.4 µM | NCI-H460 5.38 µM | Hs-578T 21.9 µM | NCI/ADR-RES 13.9 µM | NCI-H23 30.1 µM | RPMI-8226 4.17 µM

O=C(/C=C/c1ccc(Cl)c(Cl)c1)Oc1ccc(/C=C2\CCCCC2=O)cc1
inactive: SN12C > 100 µM | SK-MEL-5 > 100 µM | UO-31 > 100 µM | OVCAR-3 > 100 µM | CAKI-1 > 100 µM | HCC 2998 > 100 µM | MOLT-4 24.6 µM | M14 > 100 µM | CCRF-CEM > 100 µM | IGROV-1 > 100 µM | LOX IMVI > 100 µM | SNB-19 > 100 µM | TK-10 > 100 µM | DU-145 > 100 µM | PC-3 > 100 µM | NCI-H460 > 100 µM | Hs-578T > 100 µM | NCI/ADR-RES > 100 µM | NCI-H23 > 100 µM | RPMI-8226 67.6 µM

CC(Cl)CC(=O)OCC1CCCN2CCCCC12 (stereo unspecified)
inactive: SN12C > 100 µM | SK-MEL-5 > 100 µM | UO-31 > 100 µM | OVCAR-3 > 100 µM | CAKI-1 > 100 µM | HCC 2998 > 100 µM | MOLT-4 > 100 µM | M14 > 100 µM | CCRF-CEM > 100 µM | LOX IMVI > 100 µM | SNB-19 > 100 µM | TK-10 > 100 µM | DU-145 > 100 µM | PC-3 > 100 µM | NCI-H460 > 100 µM | Hs-578T > 100 µM | NCI/ADR-RES > 100 µM | NCI-H23 > 100 µM | RPMI-8226 > 100 µM

CSC(CC(=O)O)C(=O)O (stereo unspecified)
inactive: SN12C > 100 µM | SK-MEL-5 > 100 µM | UO-31 > 100 µM | OVCAR-3 > 100 µM | CAKI-1 > 100 µM | HCC 2998 12.5 µM | MOLT-4 > 100 µM | M14 > 100 µM | CCRF-CEM > 100 µM | IGROV-1 > 100 µM | LOX IMVI > 100 µM | SNB-19 > 100 µM | TK-10 > 100 µM | DU-145 > 100 µM | PC-3 > 100 µM | NCI-H460 > 100 µM | Hs-578T > 100 µM | NCI/ADR-RES > 100 µM | NCI-H23 > 100 µM | RPMI-8226 > 100 µM

COc1ccc(CNc2ccn(C3OC(CO)C(O)C3O)c(=O)n2)cc1 (stereo unspecified)
inactive: SN12C > 100 µM | SK-MEL-5 62.5 µM | UO-31 81.7 µM | OVCAR-3 > 100 µM | CAKI-1 > 100 µM | HCC 2998 48.8 µM | MOLT-4 45.1 µM | M14 50.5 µM | CCRF-CEM 31.3 µM | IGROV-1 > 100 µM | LOX IMVI > 100 µM | SNB-19 > 100 µM | TK-10 > 100 µM | DU-145 > 100 µM | PC-3 > 100 µM | NCI-H460 78.7 µM | Hs-578T > 100 µM | NCI/ADR-RES > 100 µM | NCI-H23 88.7 µM | RPMI-8226 86.9 µM

C=C(C)C(=O)O[C@H]1CC2(CO)O[C@@H]2CC/C(COC(C)=O)=C/C2OC(=O)C(=C)[C@@H]21 (stereo partly specified)
inactive: SN12C 92 µM | SK-MEL-5 28.3 µM | UO-31 22.5 µM | OVCAR-3 30.2 µM | CAKI-1 28.8 µM | HCC 2998 44.6 µM | MOLT-4 7.93 µM | M14 21 µM | CCRF-CEM 15.7 µM | IGROV-1 > 64.6 µM | LOX IMVI 23.9 µM | SNB-19 > 100 µM | TK-10 25.4 µM | DU-145 > 96.6 µM | PC-3 56.1 µM | NCI-H460 > 100 µM | Hs-578T > 92.5 µM | NCI/ADR-RES 45.6 µM | NCI-H23 42.2 µM | RPMI-8226 7.16 µM

COC1(OC)N=C(N)C2(C#N)C(C)=C3NCN(C)N=C3C12C#N (stereo unspecified)
inactive: SN12C > 100 µM | SK-MEL-5 > 100 µM | UO-31 > 100 µM | OVCAR-3 > 100 µM | CAKI-1 > 100 µM | HCC 2998 > 100 µM | M14 > 100 µM | CCRF-CEM > 10 µM | IGROV-1 > 100 µM | LOX IMVI > 100 µM | SNB-19 > 100 µM | TK-10 > 100 µM | DU-145 > 100 µM | PC-3 > 100 µM | Hs-578T > 100 µM | NCI/ADR-RES > 100 µM | NCI-H23 > 100 µM | RPMI-8226 > 100 µM

CCOC(=O)c1cc2nc3ccccc3c(=O)n2c2ccccc12
inactive: SN12C > 10 µM | SK-MEL-5 > 10 µM | UO-31 > 10 µM | OVCAR-3 > 10 µM | CAKI-1 > 10 µM | HCC 2998 > 10 µM | M14 > 10 µM | CCRF-CEM > 10 µM | IGROV-1 > 10 µM | LOX IMVI > 10 µM | SNB-19 > 10 µM | TK-10 > 10 µM | DU-145 > 10 µM | PC-3 > 10 µM | NCI-H460 > 10 µM | Hs-578T > 10 µM | NCI/ADR-RES > 10 µM | NCI-H23 > 10 µM | RPMI-8226 > 10 µM

COC(=O)/C=C1/OC(c2ccc(C)cc2C)=CC1=O
inactive: SK-MEL-5 16.4 µM | UO-31 16.8 µM | OVCAR-3 26.9 µM | CAKI-1 19.5 µM | HCC 2998 16.7 µM | MOLT-4 3.55 µM | M14 15.6 µM | CCRF-CEM 3.42 µM | IGROV-1 4.47 µM | LOX IMVI 6.17 µM | SNB-19 > 10 µM | TK-10 17.5 µM | DU-145 15.5 µM | PC-3 17.8 µM | NCI-H460 19 µM | Hs-578T 33.4 µM | NCI/ADR-RES 19.5 µM | NCI-H23 24.5 µM | RPMI-8226 3.63 µM

COC(=O)C1=Nc2c(C)nn(-c3ccccc3)c2N=C(c2ccc([N+](=O)[O-])cc2)C1
inactive: SN12C > 10 µM | SK-MEL-5 > 10 µM | OVCAR-3 > 10 µM | CAKI-1 > 10 µM | HCC 2998 > 10 µM | MOLT-4 > 10 µM | M14 > 10 µM | CCRF-CEM > 10 µM | IGROV-1 > 10 µM | LOX IMVI > 10 µM | SNB-19 > 10 µM | TK-10 > 10 µM | DU-145 > 10 µM | PC-3 > 10 µM | Hs-578T > 10 µM | NCI/ADR-RES > 10 µM | NCI-H23 > 10 µM | RPMI-8226 > 10 µM

Oc1ccc2c(c1)-c1c(c3cc(O)ccc3n1CCN1CCOCC1)CC2
inactive: SN12C 35.3 µM | SK-MEL-5 16.6 µM | UO-31 17.5 µM | OVCAR-3 20.7 µM | CAKI-1 24.9 µM | HCC 2998 16.9 µM | MOLT-4 19.6 µM | M14 19.5 µM | CCRF-CEM 22.8 µM | IGROV-1 24.2 µM | LOX IMVI 17.6 µM | SNB-19 29 µM | TK-10 41.1 µM | DU-145 28.4 µM | PC-3 18.4 µM | Hs-578T 27 µM | NCI/ADR-RES 24.8 µM | NCI-H23 25.3 µM | RPMI-8226 24.7 µM
